Laboratory results as given in patent publication US8618094B2, “Fused substituted aminopyrrolidine derivative” (Daiichi Sankyo Company, Limited, priority 2007, dated 2013).
Converted amounts (≈) assume the structure as drawn.

Key:
E. cloacae 03400 = assay: Antibacterial activity (MIC), standard method of the Japanese Society of Chemotherapy; type: cell-based; details: Enterobacter cloacae
Experimental: (§1) Antibacterial activity of the compounds of the present invention was measured in accordance with the standard method specified by the Japanese Society of Chemotherapy.

E. coli NIHJ = assay: as above; type: cell-based; details: Escherichia coli
Experimental: as §1

[1] = test system: S. pyogenes JCM5674(ATCC12344); assay: as above; type: cell-based; details: Streptococcus pyogenes
Experimental: as §1

P. mirabilis 08103 = assay: as above; type: cell-based; details: Proteus mirabilis
Experimental: as §1

E. faecalis 19433 = assay: as above; type: cell-based; details: Enterococcus faecalis
Experimental: as §1

S. epidermidis 56500 = assay: as above; type: cell-based; details: Staphylococcus epidermidis
Experimental: as §1

S. pneumoniae 104835 = assay: as above; type: cell-based; details: Streptococcus pneumoniae
Experimental: as §1

S. marcescens 10100 = assay: as above; type: cell-based; details: Serratia marcescens
Experimental: as §1

S. aureus FDA 209-P = assay: as above; type: cell-based; details: Staphylococcus aureus, FDA209
Experimental: as §1

K. pneumoniae TYPE 1 = assay: as above; type: cell-based; details: Klebsiella pneumoniae, TYPE1
Experimental: as §1

H. influenzae ATCC49247 = assay: as above; type: cell-based; details: Haemophilus influenzae; H. influenzae ATCC49247 (first half of Table 2); read-out: MIC, H. influenzae ATCC49247
Experimental: as §1

S. pneumoniae J24 = assay: as above; type: cell-based; details: Streptococcus pneumoniae
Experimental: as §1

S. aureus 870307 = assay: as above; type: cell-based; details: Staphylococcus aureus
Experimental: as §1

[2] = test system: M(B). Caterrhalis ATCC25238; assay: as above; type: cell-based; details: M(B). Caterrhalis ATCC25238 (first half of Table 2); read-out: MIC, M(B). Caterrhalis ATCC25238
Experimental: as §1

P. aeruginosa PAO1 = assay: as above; type: cell-based; details: Pseudomonas aeruginosa
Experimental: as §1

mouse bone marrow = assay: Mouse bone marrow micronucleus test after intravenous administration; type: in vivo
Text: The compound represented by the formula 365 was confirmed to be positive for induction of micronuclei in a mouse bone marrow micronucleus test after intravenous administration.

[3] = Mouse phototoxicity test after intravenous administration; type: in vivo

- MIC (E. cloacae 03400): 0.012 µg/mL (≈ 0.0286 µM)
- MIC (E. coli NIHJ): 0.025 µg/mL (≈ 0.0596 µM)
- MIC [1]: 0.025 µg/mL (≈ 0.0596 µM)
- MIC (P. mirabilis 08103): 0.05 µg/mL (≈ 0.119 µM)
- MIC (E. faecalis 19433): 0.1 µg/mL (≈ 0.238 µM)
- MIC (S. epidermidis 56500): 0.05 µg/mL (≈ 0.119 µM)
- MIC (S. pneumoniae 104835): 0.39 µg/mL (≈ 0.93 µM)
- MIC (S. marcescens 10100): 0.1 µg/mL (≈ 0.238 µM)
- MIC (S. aureus FDA 209-P): 0.012 µg/mL (≈ 0.0286 µM)
- MIC (K. pneumoniae TYPE 1): 0.1 µg/mL (≈ 0.238 µM)
- MIC (H. influenzae ATCC49247): 0.006 µg/mL (≈ 0.0143 µM)
- MIC (S. pneumoniae J24): 0.05 µg/mL (≈ 0.119 µM)
- MIC (S. aureus 870307): 0.78 µg/mL (≈ 1.86 µM)
- MIC [2]: 0.025 µg/mL (≈ 0.0596 µM)
- MIC (P. aeruginosa PAO1): 0.78 µg/mL (≈ 1.86 µM)
- melting point: 169 to 172 °C
Structure (SMILES): COc1c(N2C[C@@H]3CCC[C@]3(N)C2)c(F)cc2c(=O)c(C(=O)O)cn([C@@H]3C[C@@H]3F)c12 (single isomer, unassigned) [Example 11, 7-{(1R*,5S*)-1-Amino-3-azabicyclo[3.3.0]octan-3-yl}-6-fluoro-1-[(1R,2S)-2-fluorocyclopropyl]-8-methoxy-1,4-dihydro-4-oxoquinoline-3-carboxylic acid]
- induction of micronuclei (mouse bone marrow): negative
- phototoxicity [3]: negative
